The target of the assay is MBNL1-(CUG)16 complex. In words: EMSA inhibition of the MBNL1-(CUG)16 complex. It counts as biochemical. Conditions: EMSA; KI=IC50×KD/[protein]total; read-out: KI, apparent inhibition constant, MBNL1-(CUG)16 complex. The method, then: FIG. 1A-B. Determination of inhibition constants, KI, by EMSA. (a) Representative gels showing the release of (CUG)16 at different ligand concentrations. Top band is the MBNL1-(CUG)16 complex, the bottom band is the free (CUG)16. (b) IC50 values were obtained by plotting the RNA fraction bound versus ligand concentrations. The apparent inhibition constant (KI) was calculated using the equation: KI=IC50×KD/[protein]total, where KD is the dissociation constant of the MBNL1-RNA complex and [protein] is at least 7-fold greater than the KD. Error bars represent standard deviation of three independent experiments.
An electrophoretic mobility shift assay (EMSA) was employed to determine the in vitro inhibition of MBNL1-rCUG^exp complex by monomer 1a and dimers 2a-b (FIG. 1). This study used (CUG)16, which can form a hairpin structure containing a maximum of 8 U-U mismatches. […] Likely, a 1:1 complex was formed. In this study, a truncated MBNL1 (1-272 amino acids) containing four zinc finger motifs of MBNL1 and a hexahistidine tag (C-terminus) was employed. This MBNL1 construct and the full-length MBNL1 have the similar affinities to rCUG repeats.
To determine the inhibition constant of bivalent ligands 2a and 2b, the MBNL1-(CUG)16 mixture, in which ca. 50% of the RNA is free, was incubated with various concentrations of ligand (FIG. 1a). The dimer concentrations were not raised to higher than 10 μM due to the aggregation on the gel at high concentrations. As the concentration of ligand increased, more RNA was released from the complex with MBNL protein. By fitting the plot of bound RNA fractions versus ligand concentrations with an appropriate equation, the IC50 value was determined (FIG. 1b).
(CUG)16 RNA was labeled with [γ-^32P]-ATP using T4 poly-nucleotide kinase (New England Biolabs). Labeled RNA was purified by phenol extraction and ethanol precipitation. Labeled RNA was heated at 95° C. for 5 min, then placed on ice for 10 min and diluted in protein binding buffer (175 mM NaCl, 5 mM MgCl2, 20 mM Tris-HCl (pH 8), 1.25 mM 2-mercapto-ethanol (BME), 12.5% glycerol, 2 mg/ml bovine serum albumin (BSA), 0.1 mg/ml heparin, 0.05% or 0.1% Triton X). For MBNL1-(CUG)16 binding study, MBNL1 was serially diluted by a factor of 3 in protein binding buffer. To each solution was added labeled RNA, so that the final concentration of RNA was 0.2 nM. The resulting mixtures were incubated at room temperature for 10 min and loaded onto a 6% polyacrylamide gel (80:1) at 4° C. The gel was run for 2 h at 180 V in Tris-Borate 0.5× buffer (pH 8.2-8.3). Gels were dried at 80° C. under high vacuum for 2 h, developed overnight in phosphor exposure cassette, and visualized on a Molecular Dynamics Storm PhosphorImager. The KD (1:1 stoichiometry assumption) was obtained by fitting the normalized fraction RNA bound versus the concentration of protein using the equation: Fraction RNA bound=Bmax×[MBNL1]total^h/(KD^h+MBNL1]total^h) where Bmax is maximum fraction RNA bound, h is a Hill slope. Protein concentration in reaction mixture was larger than 10-fold excess over RNA concentration. Data is illustrated in FIGS. 6 and 7.
(In general: A gel shift assay detects complexes by their altered migration in electrophoresis.)

SMILES strings stand for the structures.

For the compound `N=C(NCCCCNc1nc(N)nc(N)n1)c1ccc(C(=N)NCCCCNc2nc(N)nc(NCCCn3cc(CCNc4nc(N)nc(NCCCCNC(=N)c5ccc(C(=N)NCCCCNc6nc(N)nc(N)n6)cc5)n4)nn3)n2)cc1` [Compound 2b], the Ki turned out to be 0.036 ± 0.012 µM.

The values are drawn from patent US10266520B2, “Bisamidinium-based inhibitors for the treatment of myotonic dystrophy” (The Board of Trustees of the University of Illinois, priority 2014, dated 2019).
